Test results: US7951782B2, “Composition effective to prevent or treat adult disease” (Maruha Nichiro Seafoods, Inc, priority 2005, dated 2011)
Residues, ends and D or L forms follow the SMILES beside them. No end group written: not given here.

Key:
[1] = Solubility of synthesized polypeptides
Protocol: Twenty-four polypeptides contained in the alcalase-digested, reverse phase column fraction of the basic fraction were synthesized in yields of 10 to 300 mg in the same manner as described in Example 7 and their characteristic values were determined.

[2] = molecular target: T1, xanthine oxidase (XO) of cow's milk (Bos taurus, UniProt P80457); assay: Uric acid synthetase inhibitory activity of peptides that are part of SEQ ID No. 1; assay type: biochemical; conditions: 15 μM xanthine, 50 mM tris-HCl pH 7.4, 37° C., 10 minutes
T1 construct: xanthine oxidase (XO) of cow's milk (from Wako Pure Chemical); purchased Wako Pure Chemical; host or cells: cow's milk (natural source)
Protocol: Each of the peptides synthesized was added to 1 ml of a 50 mM tris-HCl buffer (pH 7.4) containing 15 μM xanthine as an enzyme substrate to prepare a reaction system. To the reaction system was added 0.1 unit (containing 100 μl of 25 units/25 ml enzyme solution) of xanthine oxidase (XO) of cow's milk (from Wako Pure Chemical), followed by allowing the system to react at 37° C. for 10 minutes. The amount of uric acid produced from xanthine by the action of xanthine oxidase was evaluated in terms of changes in optical density (OD, at 292 nm), from which the enzyme activity was calculated from formula previously given.

[3] = molecular target: T2, xanthine oxidase (XO) from butter milk (Bos taurus, UniProt P80457); assay: Uric acid synthetase inhibitory activity of polypeptides (YINY, YNL, GYL, INF); assay type: biochemical; conditions: 15 μM xanthine, pH 7.4, 37° C., 10 minutes
T2 construct: xanthine oxidase (XO) from butter milk (from Wako Pure Chemical); purchased Wako Pure Chemical; host or cells: butter milk (natural source)
Protocol: A polypeptide having SEQ ID No. 2 (YINY), which is contained in the enzyme-digested reverse-phase column fraction of the basic fraction of a shark cartilage extract, was synthesized in the same manner as in Example 7 and added to 200 μl of a 50 mM tris-HCl buffer (pH 7.4) containing 15 μM xanthine as an enzyme substrate to prepare a reaction system. To the reaction system was added 0.1 unit (containing 1 μl of 10 units/100 μl enzyme solution) of xanthine oxidase (XO) from butter milk (from Wako Pure Chemical), followed by allowing the system to react at 37° C. for 10 minutes. The amount of uric acid produced from xanthine by the action of xanthine oxidase was evaluated in terms of changes in optical density (OD, at 292 nm), from which the enzyme activity was calculated from formula previously given.
Polypeptides YNL, GYL, and INF which are contained in the enzyme-digested reverse-phase column fraction of the basic fraction of a shark cartilage extract were synthesized in the same manner as in Example 7 and added to 200 μl of a 50 mM tris-HCl buffer (pH 7.4) containing 15 μM xanthine as an enzyme substrate to prepare a reaction system. […] The amount of uric acid produced from xanthine by the action of xanthine oxidase was evaluated in terms of changes in optical density (OD, at 292 nm), from which the enzyme activity was calculated from formula previously given. […]

T1 sequence (P80457 whole entry): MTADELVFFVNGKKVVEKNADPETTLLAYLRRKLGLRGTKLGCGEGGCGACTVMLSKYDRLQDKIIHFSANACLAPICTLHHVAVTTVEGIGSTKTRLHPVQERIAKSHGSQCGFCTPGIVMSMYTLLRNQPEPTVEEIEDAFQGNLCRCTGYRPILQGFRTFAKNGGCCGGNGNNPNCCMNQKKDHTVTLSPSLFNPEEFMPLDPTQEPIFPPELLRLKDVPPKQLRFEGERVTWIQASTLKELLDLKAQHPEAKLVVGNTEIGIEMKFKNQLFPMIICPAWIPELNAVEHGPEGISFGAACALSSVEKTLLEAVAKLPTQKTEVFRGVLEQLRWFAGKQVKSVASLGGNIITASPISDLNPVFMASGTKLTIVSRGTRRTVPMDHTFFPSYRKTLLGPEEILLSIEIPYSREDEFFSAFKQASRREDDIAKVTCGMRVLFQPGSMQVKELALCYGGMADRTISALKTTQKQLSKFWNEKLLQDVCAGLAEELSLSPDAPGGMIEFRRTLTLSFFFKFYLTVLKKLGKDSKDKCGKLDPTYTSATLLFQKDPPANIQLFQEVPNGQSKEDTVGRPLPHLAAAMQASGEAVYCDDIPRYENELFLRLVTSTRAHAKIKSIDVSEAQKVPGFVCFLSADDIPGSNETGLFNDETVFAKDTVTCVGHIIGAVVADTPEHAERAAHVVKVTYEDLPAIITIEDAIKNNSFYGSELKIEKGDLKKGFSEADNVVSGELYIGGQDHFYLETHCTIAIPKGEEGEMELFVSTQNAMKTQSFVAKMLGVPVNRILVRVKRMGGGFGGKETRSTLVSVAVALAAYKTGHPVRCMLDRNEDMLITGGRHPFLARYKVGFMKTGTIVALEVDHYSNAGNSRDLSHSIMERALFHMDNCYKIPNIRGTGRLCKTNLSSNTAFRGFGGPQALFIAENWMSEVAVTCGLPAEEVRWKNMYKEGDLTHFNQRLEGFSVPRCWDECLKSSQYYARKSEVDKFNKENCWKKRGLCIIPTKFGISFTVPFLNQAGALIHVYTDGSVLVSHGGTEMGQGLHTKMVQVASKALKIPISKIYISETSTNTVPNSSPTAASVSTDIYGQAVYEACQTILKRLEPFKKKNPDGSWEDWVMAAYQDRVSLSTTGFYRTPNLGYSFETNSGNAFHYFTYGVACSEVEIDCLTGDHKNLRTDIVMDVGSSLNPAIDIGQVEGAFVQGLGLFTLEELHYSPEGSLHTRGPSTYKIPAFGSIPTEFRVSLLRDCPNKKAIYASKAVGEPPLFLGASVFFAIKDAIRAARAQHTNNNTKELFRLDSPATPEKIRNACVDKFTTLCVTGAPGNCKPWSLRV
T2 sequence (P80457 whole entry): as above

Molecule	Solubility ([1]; in water (H2O))	also measured
N=C(N)NCCC[C@H](N)C(=O)N[C@@H](Cc1ccc(O)cc1)C(=O)N[C@@H](Cc1ccccc1)C(=O)O [Arg-Tyr-Phe] (H-Arg-Tyr-Phe-OH; N-terminus and C-terminus assumed)	1 mg/ml in H2O	
NC(=O)C[C@H](NC(=O)[C@@H](N)CC(=O)O)C(=O)O [DN] (H-Asp-Asn-OH; N-terminus and C-terminus assumed)		xanthine oxidase activity in system containing the peptide [2]: inhibited
CC(C)C[C@H](NC(=O)[C@H](Cc1ccc(O)cc1)NC(=O)CN)C(=O)O [GYL, Gly-Tyr-Leu] (H-Gly-Tyr-Leu-OH; N-terminus and C-terminus assumed)	1 mg/ml in H2O	
CC(C)C[C@H](NC(=O)[C@H](Cc1ccccc1)NC(=O)CN)C(=O)O [Gly-Phe-Leu] (H-Gly-Phe-Leu-OH; N-terminus and C-terminus assumed)		Solubility ([1]; in 10% Acetonitrile in water): 1 mg/ml in 10%
CC[C@H](C)[C@H](N)C(=O)N[C@@H](CC(N)=O)C(=O)N[C@@H](Cc1ccccc1)C(=O)O [INF, Ile-Asn-Phe] (H-Ile-Asn-Phe-OH; N-terminus and C-terminus assumed)	1 mg/ml in H2O	
CC[C@H](C)[C@H](N)C(=O)N[C@@H](CC(N)=O)C(=O)N[C@@H](Cc1ccc(O)cc1)C(=O)O [Ile-Asn-Tyr] (H-Ile-Asn-Tyr-OH; N-terminus and C-terminus assumed)		Solubility ([1]; in 5% NH4OH with H2O): 1 mg/ml in 5% NH4OH
CC[C@H](C)[C@H](N)C(=O)N[C@@H](Cc1ccc(O)cc1)C(=O)N[C@@H](CC(C)C)C(=O)O [Ile-Tyr-Leu] (H-Ile-Tyr-Leu-OH; N-terminus and C-terminus assumed)		Solubility ([1]; in 10% Acetonitrile in water): 1 mg/ml in 10% in
CC(C)C[C@H](N)C(=O)N[C@@H](CC(=O)O)C(=O)N[C@@H](CC(N)=O)C(=O)N[C@@H](Cc1ccc(O)cc1)C(=O)O [LDNY, Leu-Asp-Asn-Tyr] (H-LDNY-OH; N-terminus and C-terminus assumed)	1 mg/ml in water	xanthine oxidase activity in system containing the peptide [2]: inhibited
CC(C)C[C@H](N)C(=O)N[C@@H](CC(=O)O)C(=O)O [LD] (H-Leu-Asp-OH; N-terminus and C-terminus assumed)		xanthine oxidase activity in system containing the peptide [2]: inhibited
CC(C)C[C@H](N)C(=O)N[C@@H](Cc1ccccc1)C(=O)O [Leu-Phe] (H-Leu-Phe-OH; N-terminus and C-terminus assumed)	1 mg/ml in H2O	
N[C@@H](Cc1ccccc1)C(=O)N[C@@H](Cc1ccc(O)cc1)C(=O)O [Phe-Tyr] (H-Phe-Tyr-OH; N-terminus and C-terminus assumed)	1 mg/ml in H2O	
NC(=O)CC[C@H](NC(=O)[C@H](Cc1c[nH]c2ccccc12)NC(=O)[C@H](CC(N)=O)NC(=O)[C@@H](N)CO)C(=O)O [Ser-Asn-Trp-Gln] (H-SNWQ-OH; N-terminus and C-terminus assumed)	1 mg/ml in H2O	
CC[C@H](C)[C@H](NC(=O)[C@@H](N)CO)C(=O)N[C@@H](Cc1ccc(O)cc1)C(=O)N[C@@H](CC(=O)O)C(=O)O [Ser-Ile-Tyr-Asp] (H-SIYD-OH; N-terminus and C-terminus assumed)		Solubility ([1]; in 5% NH4OH with H2O): 1 mg/ml in 5% NH4OH
CC(C)C[C@H](NC(=O)[C@@H](N)CO)C(=O)O [Ser-Leu] (H-Ser-Leu-OH; N-terminus and C-terminus assumed)	1 mg/ml in water	
CC(C)[C@H](N)C(=O)N[C@@H](CCC(=O)O)C(=O)N[C@@H](Cc1ccc(O)cc1)C(=O)N[C@@H](Cc1ccccc1)C(=O)O [Val-Gln-Tyr-Phe]	1 mg/ml in water	
CC(C)[C@H](N)C(=O)N[C@@H](Cc1ccc(O)cc1)C(=O)N[C@@H](CCC(N)=O)C(=O)O [Val-Tyr-Gln] (H-Val-Tyr-Gln-OH; N-terminus and C-terminus assumed)	1 mg/ml in H2O	
CC[C@H](C)[C@H](NC(=O)[C@@H](N)Cc1ccc(O)cc1)C(=O)N[C@@H](CC(N)=O)C(=O)N[C@@H](Cc1ccc(O)cc1)C(=O)O [YINY, Try-Ile-Asn-Tyr] (H-YINY-OH; N-terminus and C-terminus assumed)		Solubility ([1]; in 5% NH4OH with H2O): 1 mg/ml in 5% NH4OH; xanthine oxidase activity in system containing the polypeptide [3]: inhibited
CC(C)C[C@H](NC(=O)[C@@H](N)Cc1ccc(O)cc1)C(=O)N[C@@H](CC(=O)O)C(=O)N[C@@H](CC(N)=O)C(=O)O [YLDN, Tyr-Leu-Asp-Asn] (H-YLDN-OH; N-terminus and C-terminus assumed)	1 mg/ml in water	xanthine oxidase activity in system containing the peptide [2]: inhibited
CC(C)C[C@H](NC(=O)[C@H](CC(N)=O)NC(=O)[C@@H](N)Cc1ccc(O)cc1)C(=O)O [YNL, Tyr-Asn-Leu] (H-Tyr-Asn-Leu-OH; N-terminus and C-terminus assumed)	1 mg/ml in H2O	
DFWRY [Asp-Phe-Trp-Arg-Tyr]	1 mg/ml in water	
SPPYWPY [SPPYWPY, Ser-Pro-Pro-Tyr-Trp-Pro-Tyr]	1 mg/ml in water	
YLDNY [YLDNY, Tyr-Leu-Asp-Asn-Tyr]		Solubility ([1]; in 10% Acetonitrile in water): 1 mg/ml in 10%
